Assay results published in US20240315246A1, “METHOD OF USING SIMAZINE FOR CONTROLLING ANNUAL BLUEGRASS IN COOL SEASON-TURFGRASSES” (priority 2023, published 2024).

Columns and labels:
[1] = system: cool-season turfgrass species; assay: Margin of safety on desired cool-season turfgrass species; details: in vivo
ryegrass [2] = system: ryegrass
Description: For example, when converting from overseeded ryegrass turf to perennial bermudagrass in the spring season, sublethal doses of Sapphire herbicide (or other ryegrass-removal herbicides) are applied to cause the ryegrass to slowly fade away. […] In other aspects, a method of enhancing color and quality of a turf including the cool-season turfgrass species comprises co-administering Simazine with Penoxsulam or other ryegrass-removal herbicides to the turf comprising the cool-season turfgrass species. In such implementations, a sub-lethal dosage application of Simazine in relation to the desirable cool-season turfgrass species is co-administered with Penoxsulam or other ryegrass-removal herbicides.

[3] = system: seashore Paspalum (Paspalum vaginatum); assay: Selective control of seashore Paspalum in bermudagrass turf; assay type: in vivo; details: single application 0.5 lb AI/A
Description: (§1) Bermudagrass and seashore Paspalum (Paspalum vaginatum) are both warm-season turfgrasses. However, when one species is desired, often the other species is found to contaminate the desired species. When seashore Paspalum contaminates bermudagrass, the result is undesirable. It was discovered that Simazine may be used to selectively remove the seashore Paspalum because bermudagrass is much more tolerant of Simazine than is seashore Paspalum.

Poa annua = assay: Field trial: control of Poa annua in turf comprising cool-season turfgrasses, multiple low-rate applications; assay type: in vivo; details: multiple applications at rates as low as 0.05 lbs AI/A; no photo documentation
Experimental: (§2) Unless noted otherwise, the data and results shown herein are from trials performed in Phoenix, AZ and would be representative of application of the methods described herein in a hot climate. However, Simazine is effective in management of annual bluegrass infestation in a turf comprising cool-season turfgrass species in cool, high-altitude climates as well as in hot climates (see FIG. 10). The tests were conducted according to standards required by the U.S. Environmental Protection Agency for evaluating herbicides.
However, multiple applications of lower rates may provide greater safety to the ryegrass than a higher rate single application even though both may effectively control the annual bluegrass (FIGS. 4A-6B). Multiple applications of Simazine at lower rates reduce the risk of overdosing the desirable cool-season turfgrass due to application overlaps, which occur often during turf treatments.

bermudagrass = assay: Tolerance of bermudagrass turf; assay type: in vivo; details: single application 0.5 lb AI/A
Description: as §1

ryegrass [4] = assay: Safety to ryegrass seeded after treatment of bermudagrass turf; assay type: in vivo; details: applied four days prior to planting ryegrass; 43 days after seeding
Description: Simazine may also be applied during the transition of a turf from warm-season turfgrass species to cool-season turfgrass species. Simazine is not injurious to desired cool-season turfgrasses when applied prior to planting seed. FIG. 11A show soon-to-be-dormant bermudagrass turf treated with simazine four days prior to planting ryegrass into the turf.

[5] = system: annual bluegrass (Poa annua); assay: Suppression of annual bluegrass flowers and seedheads in ryegrass turf; assay type: in vivo
Description: The test turfs shown in FIGS. 9A and 9B are ryegrass turfs infested with Poa annua that received two applications of Simazine at a rate of 0.25 lb AI/A per application.
However, applying a sub-lethal dosage of Simazine in relation to annual bluegrass still improves the quality of the turf comprising cool-season turfgrasses. Using applications that are sub-lethal to annual bluegrass (at least in the near term), simazine treatment suppresses the production of annual bluegrass flowers and seedheads rendering the turf more desirable.
The #1 plot in FIG. 8A was treated with Simazine (0.25 lb AI/A). […] The other areas were untreated and the annual bluegrass there produced prolific flowers and seedheads. FIGS. 9A and 9B show multiple applications made to ryegrass turf infested with Poa annua.

annual bluegrass = assay: Test turf in a cool high-altitude climate; assay type: in vivo, Poa annua
Experimental: FIG. 10 is a photograph of a test turf in a cool high-altitude climate.
as §2

[6] = system: annual bluegrass (Poa annua); assay: Field trial: control of annual bluegrass in bentgrass turf; assay type: in vivo
Description: Bentgrass turfgrass species are more sensitive to Simazine application than ryegrass. […] While there was still a large presence of annual bluegrass at 13 days after treatment, the patch of annual bluegrass is visibly ill (FIG. 7A).

[7] = system: annual bluegrass (Poa annua); assay: Field trial: control of annual bluegrass in ryegrass turf; assay type: in vivo
Experimental: Unless noted otherwise, the data and results shown herein are from trials performed in Phoenix, AZ and would be representative of application of the methods described herein in a hot climate. […] The tests were conducted according to standards required by the U.S. Environmental Protection Agency for evaluating herbicides.
FIG. 1A depicts a ryegrass/annual bluegrass turf test area that was subjected to four treatments. Initial treatments were made in December. Treatment area #1 received a low application rate (0.25 lb AI/A) of Simazine followed by a second low rate application one month later. Treatment area #2 received two medium rate (0.5 lb AI/A) applications on the same schedule as treatment area #1. Treatment area #3 received a single medium rate application. Treatment area #4 received no Simazine applications. The test area was evaluated 90 days after the first application as shown in FIG. 1A and the quantification data is presented in FIG. 1B.
FIG. 2B represents a single application at 0.75 lb AI/A using the 90DF formulation. […] FIG. 3A compares single application of application rates of 0.25 lb AI/A, 0.5 lb AI/A, 0.75 lb AI/A, and 1.0 lb AI/A at 86 days after treatment. FIG. 3B quantifies the percentage of annual bluegrass coverage on the test turf at 79 days after treatment.

[8] = system: annual bluegrass (Poa annua); assay: Co-administration with ryegrass-weakening herbicides A and B on ryegrass turf infested with Poa annua; assay type: in vivo; details: Simazine mixed with herbicide A or B; 60 days after treatment
Description: Herbicides A and B were applied at low dosages to weaken the existing ryegrass turf which was infested with Poa annua. Poa annua is not sensitive to either A or B. As shown in the untreated section, Poa annua would otherwise proliferate during the herbicidal treatment at 60 days after treatment, but co-administration with Simazine prevents Poa annua proliferation during the herbicidal treatment.
Because annual bluegrass is not sensitive to certain herbicides used for weakening existing ryegrass, treatment with such herbicides may not be beneficial in removing the turf as the annual bluegrass would proliferate in the area. However, mixing Simazine with herbicides improves the results of the herbicidal treatments in turf removal. […] Annual bluegrass is not sensitive to either herbicide.

[9] = ryegrass turf, two applications of 0.25 lb AI/A (FIGS. 9A, 9B)

`CCNc1nc(Cl)nc(NC(C)C)n1` [atrazine] was tested, and the “margin of safety on desired cool-season turfgrass species, compared with Simazine” value [1] was “lesser margin of safety”.
`COc1cnc(OC)n2nc(NS(=O)(=O)c3c(OCC(F)F)cccc3C(F)(F)F)nc12` [Sapphire, 2-(2,2-difluoroethoxy)-N-(5,8-dimethoxy-[1,2,4]triazolo[1,5-c]pyrimidin-2-yl)-6-(trifluoromethyl)benzenesulfonamide] was tested, and the “colour and quality of ryegrass during conversion to bermudagrass” value (ryegrass [2]; sublethal doses of ryegrass-removal herbicide alone) was “degrades the color and quality of the ryegrass”.
In the case of `CCNc1nc(Cl)nc(NCC)n1` [Simazine, 6-chloro-2-N,4-N-diethyl-1,3,5-triazine-2,4-diamine], the “control of seashore Paspalum” value [3] is reported as “eradicate seashore Paspalum”, the “control of Poa annua” value (Poa annua) is reported as “successfully controlled Poa annua” and the damage to bermudagrass (bermudagrass) is reported as “not damaging bermudagrass”. The “effect on young ryegrass” value (ryegrass [4]) was “did not affect the young ryegrass”, the “flowering and seedhead production in surviving annual bluegrass” value ([5]; plot #1 FIG. 8A, 0.25 lb AI/A) was “suppressed” and the “kill of annual bluegrass” value ([5]; plot #1 FIG. 8A, 0.25 lb AI/A) was “only a portion of the annual bluegrass was killed”. The “formation of flowers and seedheads” value [5, 9] was “greatly suppressed”, the “kill of Poa annua” value [5, 9] was “did not kill the Poa annua” and the “turf colour compared to untreated turf” value (annual bluegrass) was “darker green color”. For the same molecule, the “control of annual bluegrass infestation” value (annual bluegrass; effective dose specific to the climate) was “control of annual bluegrass infestation”, the “condition of annual bluegrass patch” value ([6]; 0.5 lb AI/A, 13 days after treatment) was “visibly ill” and the “coverage of the test area with annual bluegrass” value ([6]; 0.5 lb AI/A, 38 days after treatment) was “significantly reduced”. For the same molecule, the “control of annual bluegrass infestation” value ([6]; application at 0.5 lb AI/A) was “effectively controlled annual bluegrass infestation”, the “selective control of annual bluegrass” value ([7]; another site, single application 1.0 lb AI/A, 4 L formulation) was “selective control of annual bluegrass” and the “annual bluegrass coverage on the test turf” value ([7]; single application 0.25 lb AI/A, 79 days after treatment, untreated over 80%) was 50%. The “visual presence of annual bluegrass within the treated turf” value ([7]; single application 1.0 lb AI/A, 79 days after treatment) was “effectively removed visual presence of any annual bluegrass”, the “colour of treated ryegrass versus untreated” value (ryegrass [2]; single application, 1.0 and 0.75 lb AI/A (FIGS. 2A, 2B)) was “deeper green color” and the “colour and quality of ryegrass turf during conversion to bermudagrass” value (ryegrass [2]; sub-lethal Simazine about 0.25 AI/A included with Sapphire treatment) was “enhances the color and quality of the ryegrass turf”. The “annual bluegrass proliferation during herbicidal treatment” value [8] was “without allowing annual bluegrass to proliferate”.
